{
  "source": "patent US12462914B2",
  "about": "“Systems and methods for dispensing a statin medication over the counter” (ASTRAZENECA UK LIMITED, priority 2016, dated 2025)",
  "origin": "cited, not measured here",
  "conditions": "co-administration of warfarin with a single oral dose of atorvastatin",
  "data": [
    {"smiles": "CC(C)c1c(C(=O)Nc2ccccc2)c(-c2ccccc2)c(-c2ccc(F)cc2)n1CC[C@@H](O)C[C@@H](O)CC(=O)O", "note": "[atorvastatin]", "values": [
      {"measurement": "effect on the pharmacokinetics of atorvastatin", "result": "no significant effect"}
    ]}
  ]
}
